Assays:
[1] = target: T1, PDK1 (Homo sapiens, UniProt O15530); test: IC50 PDK1 (cell); assay type: cell-based
T1 construct: endogenous in cells; host or cells: commercially available colon carcinoma, ovary, prostate or breast cell lines (none named)
T1 sequence (O15530 1-556): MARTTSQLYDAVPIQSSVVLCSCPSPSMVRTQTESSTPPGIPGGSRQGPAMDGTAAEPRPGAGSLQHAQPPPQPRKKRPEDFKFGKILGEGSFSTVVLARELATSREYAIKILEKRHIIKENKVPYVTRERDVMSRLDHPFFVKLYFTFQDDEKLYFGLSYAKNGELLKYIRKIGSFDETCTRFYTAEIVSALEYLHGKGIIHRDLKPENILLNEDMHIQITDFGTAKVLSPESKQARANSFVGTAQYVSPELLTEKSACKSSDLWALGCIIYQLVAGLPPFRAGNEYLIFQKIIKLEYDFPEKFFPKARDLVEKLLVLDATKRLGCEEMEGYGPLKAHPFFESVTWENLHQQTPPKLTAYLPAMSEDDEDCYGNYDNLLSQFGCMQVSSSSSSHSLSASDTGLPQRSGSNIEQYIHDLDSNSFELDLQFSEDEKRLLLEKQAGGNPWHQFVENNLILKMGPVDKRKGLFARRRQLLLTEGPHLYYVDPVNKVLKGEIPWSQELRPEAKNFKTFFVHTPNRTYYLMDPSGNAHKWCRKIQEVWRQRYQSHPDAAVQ
Description: The cells are sown in a suitable cell density in microtitre plates (96-well format) and the test substances are added in the form of a concentration series. After four further days of cultivation in serum-containing medium, the tumour cell proliferation/tumour cell vitality can be determined by means of an Alamar Blue test system. A defined number of cells (for example 2000 cells) per culture/well in a volume of 180 μl of culture medium are sown in microtitre plates (96 well cell-culture plates) using a multichannel pipette. The cells are subsequently cultivated in a CO2 incubator (37° C. and 10% CO2). The test substances are dissolved, for example, in DMSO and subsequently employed in corresponding concentration (if desired in a dilution series) in the cell culture medium. The dilution steps can be adapted depending on the efficiency of the active ingredients and the desired spread of the concentrations. Cell culture medium is added to the test substances in corresponding concentrations. The addition of the test substances to the cells can take place on the same day as the sowing of the cells. To this end, in each case 20 μl of substance solution from the predilution plate are added to the cultures/wells. The cells are cultivated for a further 4 days at 37° Celsius and 10% CO2. In each case, 20 μl of Alamar Blue reagent are added per well, and the microtitre plates are incubated, for example, for a further seven hours in a CO2 incubator (at 37° C. and 10% CO2). The plates are measured in a reader with a fluorescence filter at a wavelength of 540 nm. The plates can be shaken gently immediately before the measurement. The absorbance value of the medium control (no cells and test substances used) is subtracted from all other absorbance values. The controls (cells without test substance) are set equal to 100 percent, and all other absorbance values are set in relation thereto (for example in % of control): Calculation: 100*(value with cells and test substance−value of medium control)/(value with cells−value of medium control) IC50 values (50% inhibition) are determined with the aid of statistics programs, such as, for example, RS1.

[2] = target: T2, PDK1 (Homo sapiens, UniProt O15530); test: Test for the inhibition of PDK1 (flashplate, 33P-ATP); assay type: biochemical; conditions: enzyme
T2 construct: His6 (N)
T2 sequence (O15530 51-556 limits assumed): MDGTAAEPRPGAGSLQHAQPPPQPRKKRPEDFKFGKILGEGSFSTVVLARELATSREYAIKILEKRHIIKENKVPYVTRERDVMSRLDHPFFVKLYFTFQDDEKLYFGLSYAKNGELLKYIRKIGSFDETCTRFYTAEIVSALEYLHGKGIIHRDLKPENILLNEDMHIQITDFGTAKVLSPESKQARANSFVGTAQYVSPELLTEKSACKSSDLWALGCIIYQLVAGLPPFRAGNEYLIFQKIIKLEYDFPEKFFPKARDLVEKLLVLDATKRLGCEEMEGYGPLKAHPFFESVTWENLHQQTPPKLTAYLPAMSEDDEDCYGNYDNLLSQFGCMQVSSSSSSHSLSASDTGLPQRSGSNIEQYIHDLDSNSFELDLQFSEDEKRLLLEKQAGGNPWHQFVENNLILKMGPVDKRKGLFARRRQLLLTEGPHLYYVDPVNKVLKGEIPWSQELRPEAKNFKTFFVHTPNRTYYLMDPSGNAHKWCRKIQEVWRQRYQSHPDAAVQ
Description: The experimental batches are carried out in a flashplate system with 384 wells/microtitration plate.
In each case, the PDK1 sample His6-PDK1(1-50)(3.4 nM), the PDK1 substrate biotin-bA-bA-[…] (400 nM), 4 μM ATP (with 0.2 μCi of ^33P-ATP/well) and the test substance in 50 μl of conventional experimental solution per well are incubated at 30° C. for 60 min. The test substances are employed in corresponding concentrations (if desired in a dilution series). The control is carried out without test substance. The reaction is stopped using standard methods and washed. The activity of the kinase is measured via the incorporated radioactivity in top count. In order to determine the non-specific kinase reaction (blank value), the experimental batches are carried out in the presence of 100 nM staurosporin.
The radioactivity (decompositions per minute) of the blank value (no use of test substance in the presence of staurosporin) is subtracted from all other radioactivity values. The controls (kinase activity without test substance) are set equal to 100 percent and all other radioactivity values (after subtracting the blank value) are expressed set in relation thereto (for example in % of the control).
IC50 values (50% inhibition) are determined with the aid of statistics programmes, such as, for example, RS1.

[3] = target: T3, IRAK-1 (Homo sapiens, UniProt P51617); test: Test for the inhibition of IRAK1 (autophosphorylation, flashplate); assay type: biochemical; conditions: enzyme
T3 construct: His6 (N); Dr.Jaekel Pool B, 232Y08C1.IRK
T3 sequence (P51617 whole entry, species assumed): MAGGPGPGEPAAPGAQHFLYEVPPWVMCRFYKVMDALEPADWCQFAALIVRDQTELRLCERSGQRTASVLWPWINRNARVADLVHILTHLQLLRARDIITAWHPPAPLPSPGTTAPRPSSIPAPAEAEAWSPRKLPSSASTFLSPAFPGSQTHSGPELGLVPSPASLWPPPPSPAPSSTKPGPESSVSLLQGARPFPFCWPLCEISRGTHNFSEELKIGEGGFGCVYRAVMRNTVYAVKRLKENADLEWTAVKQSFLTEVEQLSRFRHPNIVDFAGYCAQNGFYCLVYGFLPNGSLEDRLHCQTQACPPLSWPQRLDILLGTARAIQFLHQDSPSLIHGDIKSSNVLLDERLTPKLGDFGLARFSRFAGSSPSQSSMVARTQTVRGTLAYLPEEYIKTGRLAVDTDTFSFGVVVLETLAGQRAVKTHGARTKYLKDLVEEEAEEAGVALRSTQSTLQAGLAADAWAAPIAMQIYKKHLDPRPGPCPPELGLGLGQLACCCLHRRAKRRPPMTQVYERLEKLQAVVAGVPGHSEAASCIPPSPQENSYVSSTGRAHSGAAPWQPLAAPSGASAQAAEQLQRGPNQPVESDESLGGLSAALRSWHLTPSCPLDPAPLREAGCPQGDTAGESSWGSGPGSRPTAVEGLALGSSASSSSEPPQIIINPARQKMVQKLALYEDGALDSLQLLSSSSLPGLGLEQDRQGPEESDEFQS
Description: (§1) The experimental batches are carried out in a flashplate system with 384 wells/microtitre plate. In each case, in order to investigate the inhibition of the autophosphorylation activity of IRAK1, the IRAK1 sample His6-IRAK1 (5.1 nM), 1 μM ATP (with 0.25 μCi of ^33P-ATP/well) and the test substance in 50 μl of conventional experimental solution per well are incubated at 22° C. for 180 min. The test substances are employed in corresponding concentrations (if desired in a dilution series). The control is carried out without test substance. The reaction is stopped using standard methods and washed. The activity of the kinase is measured via the incorporated radioactivity in top count. In order to determine the non-specific kinase reaction (blank value), the experimental batches are carried out in the presence of 1 μM staurosporin. The radioactivity (decompositions per minute) of the blank value (no use of test substance in the presence of 1 μM staurosporin) is subtracted from all other radioactivity values. The controls (kinase activity without test substance) are set equal to 100 percent and all other radioactivity values (after subtracting the blank value) are expressed set in relation thereto (for example in % of the control). IC50 values (50% inhibition) are determined with the aid of statistics programs, such as, for example, RS1.

[4] = target: T4, IRAK-4 (Homo sapiens, UniProt Q9NWZ3); test: Test for the inhibition of IRAK4 (flashplate, 33P-ATP); assay type: biochemical; conditions: enzyme
T4 construct: His6 (N); Dr.Jaekel
T4 sequence (Q9NWZ3 1-460): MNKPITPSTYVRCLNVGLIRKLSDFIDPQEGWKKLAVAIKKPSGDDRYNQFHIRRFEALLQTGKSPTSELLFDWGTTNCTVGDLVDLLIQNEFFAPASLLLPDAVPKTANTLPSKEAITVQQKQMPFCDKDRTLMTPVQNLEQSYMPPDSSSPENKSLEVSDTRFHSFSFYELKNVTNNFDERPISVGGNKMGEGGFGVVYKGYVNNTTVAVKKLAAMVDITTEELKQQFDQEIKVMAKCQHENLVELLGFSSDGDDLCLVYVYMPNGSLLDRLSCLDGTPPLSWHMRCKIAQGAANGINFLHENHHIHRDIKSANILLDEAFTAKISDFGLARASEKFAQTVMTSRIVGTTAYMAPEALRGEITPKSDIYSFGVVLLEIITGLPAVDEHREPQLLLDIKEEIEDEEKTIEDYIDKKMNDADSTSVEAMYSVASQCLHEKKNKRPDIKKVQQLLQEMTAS
Description: as §1, with “case,” for “case, in order to investigate”, “the IRAK4 sample His6-IRAK4 (7.3 nM),” for “the inhibition of”, “the biotinylated substrate peptide STK substrate 1-biotin (Cisbio Bioassays, France) (300” for “the autophosphorylation activity of IRAK1, the IRAK1 sample His6-IRAK1 (5.1”, “nM), 10” for “nM), 1”

SMILES | IC50 [1] [µM] | IC50 [2] [nM] | IC50 [3] [nM] | IC50 [4] [nM]
C[C@@H]1CC(=O)NN=C1c1ccc2nc(-c3cc(-c4cnn(C)c4)cnc3N)[nH]c2c1 (single isomer, unassigned) [Compound A2] | 0.1 to 10 | 1 to 100 | – | –
COCCCn1cc(-c2cnc(N)c(-c3nc4cc(C5=NNC(=O)CC5C)ccc4[nH]3)c2)cn1 (stereo not drawn) [Compound A13, 6-(2-{2-Amino-5-[1-(3-methoxypropyl)-1H-pyrazol-4-yl]-pyridin-3-yl}-1H-benzimidazol-5-yl)-5-methyl-4,5-dihydro-2H-pyridazin-3-one] | 0.1 to 10 | 1 to 100 | – | –
CC1CC(=O)NN=C1c1ccc2[nH]c(-c3cc(-c4cnn(C(C)C)c4)cnc3N)nc2c1 (stereo not drawn) [Compound A11, 6-{2-[2-Amino-5-(1-isopropyl-1H-pyrazol-4-yl)pyridin-3-yl]-1H-benzimidazol-5-yl}-5-methyl-4,5-dihydro-2H-pyridazin-3-one] | 0.1 to 10 | 1 to 100 | – | –
CC1CC(=O)NN=C1c1ccc2[nH]c(-c3cc(-c4cnn(CCN5CCOCC5)c4)cnc3N)nc2c1 (stereo not drawn) [Compound A9, 6-(2-{2-amino-5-[1-(2-morpholin-4-ylethyl)-1H-pyrazol-4-yl]-pyridin-3-yl}-1H-benzimidazol-5-yl)-5-methyl-4,5-dihydro-2H-pyridazin-3-one] | 0.1 to 10 | 1 to 100 | – | –
Cn1cc(-c2cnc(N)c(-c3nc4c(O)cccc4[nH]3)c2)cn1 [Compound A102, 2-[2-Amino-5-(1-methyl-1H-pyrazol-4-yl)pyridin-3-yl]-1H-benzimidazol-4-ol] | 0.1 to 10 | 1 to 100 | – | –
CC(C)(C)c1ccc2nc(-c3cc(-c4cnn(C5CCNCC5)c4)cnc3N)[nH]c2c1 [Compound A53] | 0.1 to 10 | 1 to 100 | – | –
Cc1cccc2nc(-c3cc(-c4cnn(C5CCNCC5)c4)cnc3N)[nH]c12 [Compound A89, 3-(7-Methyl-1H-benzimidazol-2-yl)-5-(1-piperidin-4-yl-1H-pyrazol-4-yl)pyridin-2-ylamine] | – | 1 to 100 | 100 to 10000 | 100 to 10000
Cn1cc(-c2cnc(N)c(-c3nc4ccc(C(O)c5ccccc5)cc4[nH]3)c2)cn1 (stereo not drawn) [Compound A80] | > 10 | 1 to 100 | – | –
CCC1CC(=O)NN=C1c1ccc2[nH]c(-c3cc(-c4cnn(C)c4)cnc3N)nc2c1 (stereo not drawn) [Compound A4, 6-{2-[2-Amino-5-(1-methyl-1H-pyrazol-4-yl)-pyridin-3-yl]-1H-benzimidazol-5-yl}-5-ethyl-4,5-dihydro-2H-pyridazin-3-one] | 0.1 to 10 | 1 to 100 | – | –
Cn1cc(-c2cnc(N)c(-c3nc4ccc(F)cc4[nH]3)c2)cn1 [Compound A74] | – | 1 to 100 | 100 to 10000 | 100 to 10000
COc1cc2[nH]c(-c3cc(-c4cnn(CCN5CCOCC5)c4)cnc3N)nc2cc1F [Compound A148, 3-(5-Fluoro-6-methoxy-1H-benzimidazol-2-yl)-5-[1-(2-morpholin-4-ylethyl)-1H-pyrazol-4-yl]pyridin-2-ylamine] | – | 100 to 10000 | 100 to 10000 | 1 to 100
COc1cc2[nH]c(-c3cc(-c4cnn(C5CCNCC5)c4)cnc3N)nc2cc1F [Compound A69] | – | 1 to 100 | 1 to 100 | 1 to 100
COc1cc2nc(-c3cc(-c4cnn(C)c4)cnc3N)[nH]c2cc1F [Compound A78] | – | 1 to 100 | 1 to 100 | 100 to 10000
Cn1cc(-c2cnc(N)c(-c3nc4ccc(-c5ccc(=O)[nH]n5)cc4[nH]3)c2)cn1 [Compound A8, 6-{2-[2-Amino-5-(1-methyl-1H-pyrazol-4-yl)-pyridin-3-yl]-3H-benzimidazol-5-yl}-2H-pyridazin-3-one] | – | – | 100 to 10000 | 100 to 10000

— US8648201B2, “Aminopyridine derivatives for treating tumors and inflammatory diseases” (MERCK PATENT GmbH, priority 2009, dated 2014)
